{"source": "paper PMC11241262", "about": "“Unravelling the Antifibrinolytic Mechanism of Action of the 1,2,3-Triazole Derivatives” (International Journal of Molecular Sciences, 2024)", "key": {"[1]": {"target": "T1, tissue-type plasminogen activator (tPA) (Homo sapiens, UniProt P00750)", "T1 construct": "purchased abcam", "T1 sequence (P00750 36-562)": "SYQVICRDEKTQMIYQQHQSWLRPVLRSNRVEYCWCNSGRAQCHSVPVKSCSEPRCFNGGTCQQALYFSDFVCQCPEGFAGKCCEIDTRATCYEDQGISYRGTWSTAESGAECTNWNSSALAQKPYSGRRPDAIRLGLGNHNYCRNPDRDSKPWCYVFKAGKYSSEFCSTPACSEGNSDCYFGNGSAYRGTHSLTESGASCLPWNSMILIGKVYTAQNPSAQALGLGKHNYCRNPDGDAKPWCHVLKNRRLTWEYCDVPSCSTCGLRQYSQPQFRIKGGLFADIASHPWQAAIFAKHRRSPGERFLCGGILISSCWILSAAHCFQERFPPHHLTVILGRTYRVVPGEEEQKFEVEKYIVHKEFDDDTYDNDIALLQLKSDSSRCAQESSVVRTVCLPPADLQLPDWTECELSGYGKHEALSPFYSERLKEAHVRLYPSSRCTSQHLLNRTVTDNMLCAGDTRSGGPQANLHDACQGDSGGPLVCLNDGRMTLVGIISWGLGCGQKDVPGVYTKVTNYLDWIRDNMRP", "assay": "tPA activity assay (chromogenic substrate)", "assay_type": "biochemical", "protocol": "Tris hydrochloride, 1M, pH = 7.5 solution (Thermo Fisher Scientific, Waltham, MA, USA) was used as buffer. […] Recombinant human Tissue Plasminogen Activator (abcam, Cambridge, UK) served as the source of tPA, and was stored at −20 °C until used.\nThe assay measures the inhibition of tPA’s catalytic domain by the tested compounds employing a chromogenic substrate. Different concentrations of the studied molecules were incubated with tPA in a 96-well plate at 37 °C for 10 min. […] After, 20 μL of tPA’s substrate was added to each well. […] The slope for each assay was obtained from the initial and final absorbance values and their respective time points, or until complete substrate cleavage was achieved. (3) Absorbance slope=Abs2−Abs1/t2−t1\nThe Relative tPA Inhibition for each condition was calculated using Equation (2). Then, the Relative tPA Activity (%) was calculated by subtracting the relative tPA inhibition of each concentration from the total activity of the enzyme, obtained from a control without a compound."}, "plasminogen": {"target": "T2, plasminogen (Homo sapiens, UniProt P00747)", "T2 construct": "purchased abcam", "T2 sequence (P00747 20-810 limits assumed)": "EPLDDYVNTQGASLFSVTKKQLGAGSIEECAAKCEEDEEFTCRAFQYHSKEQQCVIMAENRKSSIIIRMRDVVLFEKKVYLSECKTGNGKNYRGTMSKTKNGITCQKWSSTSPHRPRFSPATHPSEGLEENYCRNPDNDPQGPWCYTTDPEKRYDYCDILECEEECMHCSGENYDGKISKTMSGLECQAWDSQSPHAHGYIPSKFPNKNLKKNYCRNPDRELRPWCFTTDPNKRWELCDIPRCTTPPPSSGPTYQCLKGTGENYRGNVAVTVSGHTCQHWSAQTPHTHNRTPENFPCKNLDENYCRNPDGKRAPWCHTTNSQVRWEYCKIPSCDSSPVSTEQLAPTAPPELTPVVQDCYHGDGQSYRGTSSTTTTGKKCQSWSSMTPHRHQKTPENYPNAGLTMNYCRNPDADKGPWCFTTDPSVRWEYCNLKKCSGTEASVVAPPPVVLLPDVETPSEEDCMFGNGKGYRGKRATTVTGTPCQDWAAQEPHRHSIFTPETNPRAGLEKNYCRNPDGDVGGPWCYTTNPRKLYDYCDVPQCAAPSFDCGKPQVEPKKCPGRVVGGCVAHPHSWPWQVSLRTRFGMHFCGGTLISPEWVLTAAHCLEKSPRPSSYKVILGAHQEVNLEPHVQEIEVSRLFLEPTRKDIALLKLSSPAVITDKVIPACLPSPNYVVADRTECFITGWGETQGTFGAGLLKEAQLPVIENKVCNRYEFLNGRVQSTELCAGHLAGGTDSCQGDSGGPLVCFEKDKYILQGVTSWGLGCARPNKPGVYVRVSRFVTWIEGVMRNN", "assay": "Plasminogen activation assay (conversion of plasminogen into plasmin by tPA in the absence of fibrin)", "assay_type": "biochemical", "protocol": "The conversion rate of plasminogen to plasmin was assessed using the Tissue-Type Plasminogen Activator Activity Assay Kit (abcam), following the manufacturer’s instructions. The assay measures the ability of tPA to activate plasminogen to plasmin in the presence of the tested compounds using a chromogenic substrate.\nA solution of plasminogen and plasmin substrate was mixed with a previously prepared solution of the studied compound and tPA in Tris HCl buffer in a 96-well plate. The final concentration of tPA in each well was 6.8 µg/mL, in a final volume of 100 µL. Absorbance was measured on a microplate reader at a wavelength of 405 nm every minute at 37 °C for 2 h or until the system reached saturation. The absorbance slope of each sample was determined using Equation (3). The Relative Plasminogen Activation (%) for each condition was calculated with Equation (4), using a control without a compound (enzyme control). (4) Relative Plasminogen Activation (%)=SlopeCompound−SlopeControl/SlopeControl×100\nValues were fitted to a linear model using MATLAB R2023a (The Math Works Inc., Natick, MA, USA). Concentrations at which each compound was able to increase plasminogen’s conversion by 50% in comparison to the enzyme control were extracted and compared for the three molecules."}, "[2]": {"test_system": "whole blood clot formation", "assay": "Whole blood coagulation assay (clot formation, no exogenous tPA)", "parameters": "species or system human", "conditions": "40 µM, 37 °C, fibrinolysis not triggered", "protocol": "(§1) Blood was obtained by venipuncture from healthy donors after they signed an informed consent form. Blood was transferred into vacuum non-anticoagulant Vacutainer® tubes (BD, Franklin Lakes, NJ, USA). Blood samples were immediately used for the assay after extraction.\nPrior to blood addition, 20 µL of the evaluated compounds was added to glass tubes, in a final concentration of 40 µM. As a control clot, 20 µL of Tris HCl buffer with no compound was used. Next, 800 µL of blood was transferred to each tube followed by casual shaking to ensure proper mixing. Tubes were incubated at 37 °C for 30 min to allow clot formation and posterior lysis. Blood clotting and lysis were visually monitored and photographs were taken after 30 min."}, "whole blood clots": {"test_system": "whole blood clots", "assay": "Whole blood dosage (effective antifibrinolytic dosage, tPA-triggered clot lysis)", "parameters": "species or system human", "conditions": "10 µg/mL tPA, 37 °C", "protocol": "as §1\nGlass tubes were prepared with 20 µL of a mixture of tPA, in a final concentration of 10 µg/mL, and the evaluated compounds, in a final concentration of 10, 20, 40, or 60 µM in Tris HCl buffer. A control clot was obtained with 20 µL of tPA with no compound. Then, 800 µL of blood was transferred to each tube and tubes were monitored for clot formation and lysis. The assay was performed with casual shaking. […] The ex vivo effective dosage for each compound was determined by their ability to inhibit complete clot degradation. Photographs were taken after 24 h of incubation."}, "in vivo": {"assay": "in vivo", "conditions": "dog", "protocol": "In the case of dogs, one male and one female Beagle dog were selected for the study. A period of 5 days was used to allow dogs to acclimatize, and at the start of dosing, they were between 5 and 6 months old. Dogs were housed individually per sex in an environmentally controlled room, maintained at 24 ± 2 °C and 71.5 ± 4.5% relative humidity, on a 12–12 h light–dark cycle (beginning at 06:00 h) with 17 or 22 air changes per hour. Dogs were provided with 300 g feed every day and with water ad libitum.\nCompound 5 was administered via an intravenous bolus injection through the cephalic vein of the forelimb, using a sterile needle attached to a graduated syringe. An initial dose level of 50 mg/kg b. wt. […] Following a washout period of 7 days, a dose of 75 mg/kg b. wt. […] A constant volume of 1 mL/kg b. wt. was used, with individual doses adjusted to the most recent recorded body weight of each animal. Dogs were observed twice daily for clinical, mortality, and morbidity signs throughout the study period of 7 days. Body weight was recorded on dosing day and every two days during the assay period. Additionally, a daily record of individual dog feed intake and leftover feed was maintained. Blood samples were obtained prior to dosing and on day 7. Blood was extracted either from the cephalic vein in the forelimb or the lateral saphenous vein in the hind limb. Around 2.0 mL of blood was collected in non-heparin centrifuge tubes for serum separation to conduct clinical chemistry estimations. An additional 0.5 mL of blood was collected in EDTA-containing vials for hematology analysis and another 0.5 mL of blood was collected in tubes containing a 3.2% sodium citrate solution for Prothrombin time determination. Dogs were fasted overnight, with only water allowed prior to blood collection. Hematology and clinical chemistry determinations are available upon request. Dogs were euthanized by an intravenous injection of barbiturate (thiopentone sodium 100 mg/kg b. wt.). Then, a comprehensive gross necropsy was performed. Dogs were first examined for external abnormalities. The cranial, thoracic, and abdominal cavities were then dissected, and a thorough examination of the organs was conducted. Specifically, the liver, testes, uterus, brain, and kidneys were collected and subjected to microscopic examination using paraffin-embedded tissue stained with hematoxylin-eosin."}}, "data": [{"smiles": "O=c1[nH]nc(-c2cn(C3CCNCC3)nn2)o1", "note": "[compound 5]", "values": [{"measurement": "percentage of tPA's activity", "setting": "[1]; 0.5 mM", "value": 93.70, "unit": "%"}, {"measurement": "percentage of tPA's activity", "setting": "[1]; 1 mM", "value": 91.18, "unit": "%"}, {"measurement": "percentage of tPA's activity", "setting": "[1]; 5 mM", "value": 88.78, "unit": "%"}, {"measurement": "percentage of tPA's activity", "setting": "[1]; 10 mM", "value": 89.39, "unit": "%"}, {"measurement": "percentage of tPA's activity", "setting": "[1]; 15 mM", "value": 103.70, "unit": "%"}, {"measurement": "activity on tPA's active site", "setting": "[1]; at the tested concentrations", "value": "no activity"}, {"measurement": "potency relative to TXA in catalyzing plasminogen's activation by tPA", "setting": "plasminogen; from concentration enhancing tPA's activity by 50%", "value": "more than 50 times"}, {"measurement": "concentration at which compound increased tPA's activity by 50%", "setting": "plasminogen; plasminogen-tPA isolated system, absence of fibrin", "value": 4.03, "unit": "µM"}, {"measurement": "effect on clot formation", "setting": "[2]", "value": "do not have any effect"}, {"measurement": "effective dosage (concentration preventing complete clot degradation after 24 h)", "setting": "whole blood clots", "value": 10, "unit": "µM"}, {"measurement": "MTD at 7 days", "setting": "in vivo; both, Beagle, iv", "value": 75, "unit": "mg/kg"}, {"measurement": "Microscopic Findings, kidneys", "setting": "in vivo", "value": "Kidneys (bilateral): min ima l infiltration"}, {"measurement": "Microscopic Findings, testes", "setting": "in vivo", "value": "Testes (bilateral): immature – present"}, {"measurement": "hematology and clinical chemistry parameters", "setting": "in vivo", "value": "did not show any alteration"}, {"measurement": "terminal body and organ weight", "setting": "in vivo", "value": "no treatment-related alterations"}]}]}
